Test results: PMC11476959, “Structural Insights and Catalytic Mechanism of 3-Hydroxybutyryl-CoA Dehydrogenase from Faecalibacterium Prausnitzii A2-165” (International Journal of Molecular Sciences, 2024)

Key:
[1] = molecular target: 3-hydroxybutyryl-CoA dehydrogenase of Faecalibacterium prausnitzii A2-165 (Faecalibacterium prausnitzii A2-165); assay: SEC-MALS; 2.018 mg/mL A2HBD on Superdex 200 Increase, 20 mM Tris-HCl pH 8.0, 150 mM NaCl, 0.3 mL/min; main peak 92% of the scattered mass
[2] = molecular target: T1, 3-hydroxybutyryl-CoA dehydrogenase of A2-165 (A2HBD; A2-165 BHBD) (Faecalibacterium duncaniae, UniProt C7H5K9); assay: microscale thermophoresis; format: binding
T1 construct: gene FAEPRAA2165_01580; full-length (Met1-Leu290 printed, 867 bp gene), C-terminal 6xHis kept, pET21a, E. coli BL21(DE3); hexamer in solution; N-terminus MKIGVI and C-terminus TPVDQ-LE(H6) from the printed primers; Leu290 probably comes from the XhoI site
T1 sequence (C7H5K9 entry or part of it): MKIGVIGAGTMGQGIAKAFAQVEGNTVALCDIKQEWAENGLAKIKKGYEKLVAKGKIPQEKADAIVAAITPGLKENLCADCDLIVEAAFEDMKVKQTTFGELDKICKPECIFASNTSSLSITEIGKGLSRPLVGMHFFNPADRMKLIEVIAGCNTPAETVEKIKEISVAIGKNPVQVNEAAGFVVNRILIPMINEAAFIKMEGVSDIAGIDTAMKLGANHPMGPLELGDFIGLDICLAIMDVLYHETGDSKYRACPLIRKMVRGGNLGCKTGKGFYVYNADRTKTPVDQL

| stoichiometry N [1] | Kd [2] [µM] | Molecule |
| --- | --- | --- |
| 6 |  | 3-hydroxybutyryl-CoA dehydrogenase of Faecalibacterium prausnitzii A2-165 (enzyme) |
|  | 347 | NC(=O)c1ccc[n+]([C@@H]2O[C@H](COP(=O)(O)OP(=O)(O)OC[C@H]3O[C@@H](n4cnc5c(N)ncnc54)[C@H](O)[C@@H]3O)[C@@H](O)[C@H]2O)c1 [NAD^+] |
|  | 23.9 | CC(=O)CC(=O)SCCNC(=O)CCNC(=O)[C@H](O)C(C)(C)COP(=O)(O)OP(=O)(O)OC[C@H]1O[C@@H](n2cnc3c(N)ncnc32)[C@H](O)[C@@H]1OP(=O)(O)O [acetoacetyl-CoA] |
